The results in this text go back to article PMC5729604, “Dual inhibitors of hepatitis C virus and hepatocellular carcinoma: design, synthesis and docking studies” (Future Science OA, 2017).

Data set [1] has as its system human HCC cell line HepG2. As to the kind of experiment: cells. Particulars: 72 h; for IC50: Homo sapiens, HepG2, 72 h, neutral red, Supplementary Table 2, read-out: Anticancer (HepG2) IC50; for (LD0) HepG2 / Safe doses (100% viability of HepG2) LD0: human. It counts as cell-based.
The next data set in a line: In vitro hemolytic assay. The class given is cell-based. Conditions: 2% erythrocyte suspension (washed red blood cells); 2% erythrocyte suspension, 3 μl of 1 mg/ml compound in DMF per 240 μl well, 37°C 30 min, absorbance 405 nm; <5% considered nontoxic. An outline of the steps:
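Washed erythrocytes as a 2% suspension in 0.9% NaCl, mixed with compound from a 1 mg/ml DMF stock, triplicate, 37°C for 30 min. Haemoglobin released into the supernatant read at 405 nm against distilled-water lysis (100%) and isotonic buffer (0%).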

Converted amounts (≈) assume the structure as drawn.

As for `CC(=NN=C1SC(=C2C(=O)Nc3ccccc32)C(=O)N1c1ccccc1)c1nc2ccccc2[nH]1` [Compound 6e, 2-[1-(1H-Benzimidazole-2-yl)ethylidenehydrazono]-5-(2-oxoindolin-3-ylidene)-3-phenylthiazolidin-4-one], in data set [1], the IC50 is 110 µg/mL (≈ 231 µM), the “(LD0) HepG2” value was found to be 16.75 µg/mL and the “Safe doses (100% viability of HepG2) LD0” value is 16.75 µg/mL. In addition, in the data set “In vitro hemolytic assay”, the hemolysis at 30 min, 12.5 µg/ml worked out at 4.51%.
As to `CC(=NN=C1SC(=C2C(=O)Nc3ccccc32)C(=O)N1c1ccc(Cl)cc1)c1nc2ccccc2[nH]1` [Compound 6f, 2-[1-(1H-Benzimidazole-2-yl)ethylidenehydrazono]-5-(2-oxoindolin-3-ylidene)-3-(4-chlorophenyl)thiazolidin-4-one], in data set [1], the IC50 is 154 µg/mL (≈ 300 µM), the “(LD0) HepG2” value is 35.33 µg/mL and the “Safe doses (100% viability of HepG2) LD0” value was determined as 35.33 µg/mL. The same molecule yielded a hemolysis at 30 min, 12.5 µg/ml in “In vitro hemolytic assay” of 1.01%.
For the molecule `COc1ccc(N2C(=O)C(=C3C(=O)Nc4ccccc43)SC2=NN=C(C)c2nc3ccccc3[nH]2)cc1` [Compound 6g, 2-[1-(1H-Benzimidazole-2-yl)ethylidenehydrazono]-5-(2-oxoindolin-3-ylidene)-3-(4-methoxyphenyl)thiazolidin-4-one], in data set [1], the IC50 stood at 248 µg/mL (≈ 487 µM), the “(LD0) HepG2” value was 18.62 µg/mL and the “Safe doses (100% viability of HepG2) LD0” value came out at 18.62 µg/mL. The molecule further yielded a hemolysis at 30 min, 12.5 µg/ml in the data set “In vitro hemolytic assay” of 2.65%.
